Experimental findings from PMC5335602, “Protein-ligand binding affinity determination by the waterLOGSY method: An optimised approach considering ligand rebinding” (Scientific Reports, 2017) are described below.

Common to all, as to assay type: binding
One experiment deals with T1, α-chymotrypsin (Bos taurus, UniProt P00766).
T1 construct: from bovine pancreas, Type II
In words: […] NMR chemical shift titration; waterLOGSY titration.

Experiment [1] concerns the target T2, human serum albumin (HSA) (Homo sapiens, UniProt P02768).
T2 construct: gene ALB
Put plainly: waterLOGSY NMR titration ([…] HSA, […] s mixing time). The following applies: read-out: KD^obs/μM / 25 μM HSA.

The target of experiment [2] is T3, bovine serum albumin (BSA) (Bos taurus, UniProt P02769).
T3 construct: gene ALB
T3 sequence (P02769 25-607): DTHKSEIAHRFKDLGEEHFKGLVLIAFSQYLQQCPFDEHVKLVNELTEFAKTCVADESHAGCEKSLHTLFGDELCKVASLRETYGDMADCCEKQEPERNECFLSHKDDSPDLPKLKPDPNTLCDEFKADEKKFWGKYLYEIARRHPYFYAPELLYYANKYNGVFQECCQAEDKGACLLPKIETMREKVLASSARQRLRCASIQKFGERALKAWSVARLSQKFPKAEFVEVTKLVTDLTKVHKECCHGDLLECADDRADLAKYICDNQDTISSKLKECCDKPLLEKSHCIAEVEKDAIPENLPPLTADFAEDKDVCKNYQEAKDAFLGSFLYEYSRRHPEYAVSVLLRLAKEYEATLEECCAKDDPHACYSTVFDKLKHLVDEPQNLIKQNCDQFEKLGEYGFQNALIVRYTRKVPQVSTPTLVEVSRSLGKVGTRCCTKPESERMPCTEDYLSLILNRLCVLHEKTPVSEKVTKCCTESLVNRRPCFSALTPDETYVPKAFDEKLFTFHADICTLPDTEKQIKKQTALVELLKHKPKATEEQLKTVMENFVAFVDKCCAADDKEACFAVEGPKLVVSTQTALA
In words: waterLOGSY NMR titration ([…] BSA).

T2 sequence (P02768 25-609): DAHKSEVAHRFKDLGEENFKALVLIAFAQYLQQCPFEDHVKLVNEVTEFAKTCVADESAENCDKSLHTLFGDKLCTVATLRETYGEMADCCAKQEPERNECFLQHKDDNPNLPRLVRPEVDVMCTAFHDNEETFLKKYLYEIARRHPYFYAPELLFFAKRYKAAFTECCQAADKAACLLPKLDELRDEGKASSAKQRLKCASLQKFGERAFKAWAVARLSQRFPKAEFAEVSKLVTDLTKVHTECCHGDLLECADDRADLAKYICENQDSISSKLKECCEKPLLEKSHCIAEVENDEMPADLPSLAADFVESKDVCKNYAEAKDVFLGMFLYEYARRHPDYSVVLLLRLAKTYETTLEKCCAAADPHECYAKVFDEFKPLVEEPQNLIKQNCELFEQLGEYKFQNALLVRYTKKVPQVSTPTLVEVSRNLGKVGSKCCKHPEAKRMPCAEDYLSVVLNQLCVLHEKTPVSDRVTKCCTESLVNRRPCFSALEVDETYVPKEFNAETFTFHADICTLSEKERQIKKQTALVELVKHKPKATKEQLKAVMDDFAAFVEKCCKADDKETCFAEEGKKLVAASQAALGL

`OB(O)c1cccc(F)c1` [3-Fluorophenylboronic acid]: the Kd on α-chymotrypsin is 630 µM. Take `N[C@@H](Cc1c[nH]c2ccccc12)C(=O)O` [L-tryptophan]: the Kd in experiment [1] is 185 ± 50 µM; in experiment [2], approximately 120 µM.
